Converted amounts (≈) assume the structure as drawn. Read-outs that look alike come from different tables or passages of the source.
Experiments:
[1] = system: Listeria innocua ATCC 33090; assay: MIC/MBC micro-dilution; format: cell-based
[2] = system: Listeria innocua ATCC 33090; assay: Antimicrobial test, 5 min treatment, plate count; format: cell-based; details: 0.1%
Description: Since the solutions contained 10% of ethanol, ethanol (10%) along with water were used as references. The bacteria and the solutions were vortexed and incubated at ambient temperature ([…]) for 5 min before immediately being plated (diluted when needed) on TSA to determine the survival of the bacteria. After 24 h at 37° C., colonies on the plates were counted.
Statistical analysis: Data on antimicrobial test were subjected to statistical analysis using SAS Version 8.2 (SAS Institute, Cary, N.C.). The Duncan's multiple range test was used for the treatment effects.

[3] = Listeria innocua, ATCC33090, 24 h

Compound | MBC ([1]; Listeria innocua, ATCC33090) [µg/mL] | MIC [1, 3] [µg/mL] | also measured
Cc1ccc(C(C)C)cc1O [Carvacrol] | 454 (≈ 3.03 mM) | 233 to 454 (≈ 1.55 to 3.03 mM) | 
CCCCCCCC/C=C\CCCCCCCC(=O)O [OLA, oleic acid] |  |  | Reduction of population of L. innocua [2]: 3.5 logs CFU/mL
Cc1ccc(C(C)C)c(O)c1 [Thymol] |  |  | MIC ([1]; ATCC33090, Listeria innocua ATCC 33090, 24 h at 37° C., read-out: MIC): 233 to 454 µg/mL (≈ 1.55 to 3.03 mM); MBC ([1]; ATCC33090, Listeria innocua ATCC 33090, read-out: MBC): > 454 µg/mL
Oc1ccccc1 [Phenol, phenol] | > 454 | > 454 | Effect on population of L. innocua [2]: no significant effect

— US10144694B2, “Methods for preparing phenolic branched chain alkyl fatty acids or esters thereof and methods for killing microorganisms” (The United States of America, as Represented by the …, priority 2016, dated 2018)
